In patent US10758534B2 (Vertex Pharmaceuticals Incorporated, priority 2014, dated 2020) one finds EC30 data, which are given here for 27 compounds.

T1 sequence (P13569 with tags, fused parts or gaps DEL508-508): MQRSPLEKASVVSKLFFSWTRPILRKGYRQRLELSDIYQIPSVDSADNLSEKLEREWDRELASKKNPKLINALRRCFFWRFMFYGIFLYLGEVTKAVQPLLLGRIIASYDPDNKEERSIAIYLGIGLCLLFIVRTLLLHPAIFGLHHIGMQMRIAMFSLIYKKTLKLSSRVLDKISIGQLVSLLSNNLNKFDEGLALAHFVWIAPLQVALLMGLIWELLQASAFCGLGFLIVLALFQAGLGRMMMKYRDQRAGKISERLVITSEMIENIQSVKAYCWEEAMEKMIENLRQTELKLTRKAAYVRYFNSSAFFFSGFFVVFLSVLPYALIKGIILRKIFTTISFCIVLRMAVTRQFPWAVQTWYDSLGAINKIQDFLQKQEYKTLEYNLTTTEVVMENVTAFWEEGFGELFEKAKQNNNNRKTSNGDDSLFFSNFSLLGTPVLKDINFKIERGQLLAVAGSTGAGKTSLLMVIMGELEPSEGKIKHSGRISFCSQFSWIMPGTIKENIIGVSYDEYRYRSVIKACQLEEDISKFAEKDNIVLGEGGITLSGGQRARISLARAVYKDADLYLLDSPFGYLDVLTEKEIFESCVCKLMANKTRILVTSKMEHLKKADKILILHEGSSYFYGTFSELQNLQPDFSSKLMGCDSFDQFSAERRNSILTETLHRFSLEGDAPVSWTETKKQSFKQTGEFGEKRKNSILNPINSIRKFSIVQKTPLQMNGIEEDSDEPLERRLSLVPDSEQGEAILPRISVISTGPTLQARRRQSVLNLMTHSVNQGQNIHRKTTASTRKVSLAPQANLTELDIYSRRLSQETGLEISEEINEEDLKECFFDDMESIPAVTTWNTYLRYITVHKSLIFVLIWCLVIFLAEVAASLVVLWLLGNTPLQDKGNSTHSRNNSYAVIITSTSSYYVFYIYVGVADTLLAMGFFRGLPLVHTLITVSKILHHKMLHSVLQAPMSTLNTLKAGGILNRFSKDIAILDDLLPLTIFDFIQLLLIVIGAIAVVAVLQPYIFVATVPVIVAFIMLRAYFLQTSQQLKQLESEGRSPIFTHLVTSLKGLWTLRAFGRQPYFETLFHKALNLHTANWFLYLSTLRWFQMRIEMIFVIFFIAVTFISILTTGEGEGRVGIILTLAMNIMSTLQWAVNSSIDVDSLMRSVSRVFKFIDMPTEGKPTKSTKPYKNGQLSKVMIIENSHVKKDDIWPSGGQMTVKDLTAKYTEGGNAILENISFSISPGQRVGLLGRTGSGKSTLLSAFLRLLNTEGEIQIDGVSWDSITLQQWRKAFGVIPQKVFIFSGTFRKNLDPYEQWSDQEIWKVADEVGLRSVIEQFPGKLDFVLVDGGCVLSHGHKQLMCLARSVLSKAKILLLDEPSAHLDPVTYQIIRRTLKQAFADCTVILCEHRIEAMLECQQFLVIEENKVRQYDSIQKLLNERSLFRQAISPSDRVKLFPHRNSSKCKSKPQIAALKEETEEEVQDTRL

The assay addresses T1, F508del (Homo sapiens, UniProt P13569, DEL508-508).
T1 construct: expressed in transfected cells
The assay can be described thus: Protocol 1: membrane potential optical assay (FLIPR III, voltage sensing dye), identification of potentiator compounds. The format is cell-based. The following applies: Table 3, compounds of Table 1. In short, it runs like this:
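NIH 3T3 fibroblasts stably expressing F508del were cultured at 27° C for 24 hrs for temperature correction, then treated with compounds or DMSO and loaded with a voltage-sensing redistribution dye. Forskolin added with a Cl⁻ gradient activated the channel; membrane-potential fluorescence on FLIPR III reported increased gating.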
In the case of `CC(C)COc1cc(-c2ccc(C(=O)NS(=O)(=O)c3cccc(N)n3)c(N3CCC(C)CC3)n2)ccc1Cl` [Compound 1266, N-[(6-amino-2-pyridyl)sulfonyl]-6-(4-chloro-3-isobutoxy-phenyl)-2-(4-methyl-1-piperidyl)pyridine-3-carboxamide], the EC30 entry is listed as “+++ (“+++” means <3 uM)”.

Consider `Cc1ccc(-c2nc(C(C)(C)C)ccc2C(=O)NS(=O)(=O)c2cccc(O)c2)cc1` [Compound 1265, 6-tert-butyl-N-(3-hydroxyphenyl)sulfonyl-2-(p-tolyl)pyridine-3-carboxamide], for which the EC30 result was “++ (“++” means between 3 uM and 10 uM)”.

As to `CC1CN(c2nc(C(C)(C)C)c(-c3cnn(C)c3)cc2C(=O)NS(=O)(=O)c2cccc(N)n2)C(C)(C)C1` (stereo not drawn) [Compound 1441, N-[(6-amino-2-pyridyl)sulfonyl]-6-tert-butyl-5-(1-methylpyrazol-4-yl)-2-(2,2,4-trimethylpyrrolidin-1-yl)pyridine-3-carboxamide], the EC30 entry was “++ (“++” means between 3 uM and 10 uM)”.

Turning to `C[C@@H]1CN(c2nc(C(C)(C)C)c(/C=C/c3ccc(C(F)(F)F)cc3)cc2C(=O)NS(=O)(=O)c2cccc(N)n2)C(C)(C)C1` [Compound 1566, N-[(6-amino-2-pyridyl)sulfonyl]-6-tert-butyl-5-[(E)-2-[4-(trifluoromethyl)phenyl]vinyl]-2-[(4S)-2,2,4-trimethylpyrrolidin-1-yl]pyridine-3-carboxamide], the EC30 entry is recorded as “+++ (“+++” means <3 uM)”.

On to `CC(C)COc1cc(F)cc(-c2ccc(C(=O)NS(=O)(=O)c3cccc(N)c3)c(N3CC(C)CC3(C)C)n2)c1` (stereo not drawn) [Compound 1184, N-(3-aminophenyl)sulfonyl-6-(3-fluoro-5-isobutoxy-phenyl)-2-(2,2,4-trimethylpyrrolidin-1-yl)pyridine-3-carboxamide], for which the EC30 result was “+++ (“+++” means <3 uM)”.

For `CC1CN(c2ncccc2C(=O)NS(=O)(=O)c2cccc(Oc3cncc(Cl)c3)n2)C(C)(C)C1` (stereo not drawn) [Compound 1957, N—[[6-[(5-chloro-3-pyridyl)oxy]-2-pyridyl]sulfonyl]-2-(2,2,4-trimethylpyrrolidin-1-yl)pyridine-3-carboxamide], the EC30 entry was “++ (“++” means between 3 uM and 10 uM)”.

Consider `CCOc1cccc2c1CN(Cc1c(C)cc(C)cc1C)C2(C)C(=O)NS(=O)(=O)c1cccc2[nH]ccc12` (stereo not drawn) [Compound 1666, 4-ethoxy-N-(1H-indol-4-ylsulfonyl)-1-methyl-2-[(2,4,6-trimethylphenyl)methyl]isoindoline-1-carboxamide], for which the EC30 entry is given as “+++ (“+++” means <3 uM)”.

In the case of `COc1cccc(-c2ccc(C(=O)NS(=O)(=O)c3ccc[nH]c3=O)c(N3C[C@@H](C)CC3(C)C)n2)c1` [Compound 1927, 6-(3-methoxyphenyl)-N-[(2-oxo-1H-pyridin-3-yl)sulfonyl]-2-[(4S)-2,2,4-trimethylpyrrolidin-1-yl]pyridine-3-carboxamide], the EC30 entry is reported as “+++ (“+++” means <3 uM)”.

On to `CCOc1ccc(-c2ccc(C(=O)NS(=O)(=O)c3cccc(N)n3)c(Oc3c(C)cc(C)cc3C)n2)cn1` [Compound 1185, N-[(6-amino-2-pyridyl)sulfonyl]-6-(6-ethoxy-3-pyridyl)-2-(2,4,6-trimethylphenoxy)pyridine-3-carboxamide], for which the EC30 entry is given as “+++ (“+++” means <3 uM)”.

For the compound `CCc1cccc(S(=O)(=O)NC(=O)c2cc(C(C)(C)C)nn2Cc2c(C)cc(C)cc2C)c1` [Compound 823, 5-tert-butyl-N-(3-ethylphenyl)sulfonyl-2-[(2,4,6-trimethylphenyl)methyl]pyrazole-3-carboxamide], the EC30 result is on record as “+ (“+” means greater than 10 uM)”.

For `CCOc1cccc2c1CN(Cc1ccc(C(C)C)cc1)C2(C)C(=O)NS(=O)(=O)c1cccc(F)n1` (stereo not drawn) [Compound 1655, 4-ethoxy-N-[(6-fluoro-2-pyridyl)sulfonyl]-2-[(4-isopropylphenyl)methyl]-1-methyl-isoindoline-1-carboxamide], the EC30 entry is recorded as “+++ (“+++” means <3 uM)”.

Take `Cc1cc(C)c(Oc2cc(-c3cc(F)cc(OCC(C)C)c3)ccc2C(=O)NS(=O)(=O)c2cccc(N)n2)c(C)c1` [Compound 1549, N-[(6-amino-2-pyridyl)sulfonyl]-4-(3-fluoro-5-isobutoxy-phenyl)-2-(2,4,6-trimethylphenoxy)benzamide]: the EC30 result is listed as “+++ (“+++” means <3 uM)”.

Consider `C[C@@H]1CN(c2nc(-c3ccc(C(F)(F)F)cc3)ccc2C(=O)NS(=O)(=O)N2CC[C@H](N)C2)C(C)(C)C1` [Compound 1900, N-[(3S)-3-aminopyrrolidin-1-yl]sulfonyl-6-[4-(trifluoromethyl)phenyl]-2-[(4S)-2,2,4-trimethylpyrrolidin-1-yl]pyridine-3-carboxamide], for which the EC30 result is “++ (“++” means between 3 uM and 10 uM)”.

With `Cc1cc(C)c(Oc2nc(C3=COCC3)ccc2C(=O)NS(=O)(=O)c2cccc(N)n2)c(C)c1` [Compound 1412, N-[(6-amino-2-pyridyl)sulfonyl]-6-(2,3-dihydrofuran-4-yl)-2-(2,4,6-trimethylphenoxy)pyridine-3-carboxamide], the EC30 entry was “+++ (“+++” means <3 uM)”.

Regarding `CC(C)COc1cc(F)cc(-c2ccc(C(=O)NS(=O)(=O)c3cccc(N)n3)c(N3CCC(C)(C)CC3)n2)c1` [Compound 1279, N-[(6-amino-2-pyridyl)sulfonyl]-2-(4,4-dimethyl-1-piperidyl)-6-(3-fluoro-5-isobutoxy-phenyl)pyridine-3-carboxamide], the EC30 entry was “+++ (“+++” means <3 uM)”.

As for `Cc1nc(OC(C)C)ccc1-c1ccc(C(=O)NS(=O)(=O)c2cccc(N)n2)c(N2[C@H](C)CC[C@@H]2C)n1` [Compound 1623, N-[(6-amino-2-pyridyl)sulfonyl]-2-[(2R,5S)-2,5-dimethylpyrrolidin-1-yl]-6-(6-isopropoxy-2-methyl-3-pyridyl)pyridine-3-carboxamide], the EC30 entry was “+++ (“+++” means <3 uM)”.

`CC1CN(c2ncccc2C(=O)NS(=O)(=O)c2cccc(Nc3cccc(Cl)c3)n2)C(C)(C)C1` (stereo not drawn) [Compound 1841, N—[[6-(3-chloroanilino)-2-pyridyl]sulfonyl]-2-(2,2,4-trimethylpyrrolidin-1-yl)pyridine-3-carboxamide]: the EC30 entry is “+++ (“+++” means <3 uM)”.

With `CC1CN(c2nc(-c3ccnc(C(C)C)c3)ccc2C(=O)NS(=O)(=O)c2cccc(N)n2)C(C)(C)C1` (stereo not drawn) [Compound 1262, N-[(6-amino-2-pyridyl)sulfonyl]-6-(2-isopropyl-4-pyridyl)-2-(2,2,4-trimethylpyrrolidin-1-yl)pyridine-3-carboxamide], the EC30 result was “++ (“++” means between 3 uM and 10 uM)”.

As to `COc1cc(OC)cc(-c2ccc(C(=O)NS(=O)(=O)c3cccc(N)n3)c(Oc3c(C)cc(C)cc3C)n2)c1` [Compound 828, N-[(6-amino-2-pyridyl)sulfonyl]-6-(3,5-dimethoxyphenyl)-2-(2,4,6-trimethylphenoxy)pyridine-3-carboxamide], the EC30 entry is “+++ (“+++” means <3 uM)”.

Take `CC(C)COc1cc(F)cc(-c2ccc(C(=O)NS(=O)(=O)c3cccc(N)n3)c(N3CCCC(C)(C)C3)n2)c1` [Compound 887, N-[(6-amino-2-pyridyl)sulfonyl]-2-(3,3-dimethyl-1-piperidyl)-6-(3-fluoro-5-isobutoxy-phenyl)pyridine-3-carboxamide]: the EC30 result was “+++ (“+++” means <3 uM)”.

In the case of `CC1CN(c2ncccc2C(=O)NS(=O)(=O)c2cccc(OCC3CCCCC3)n2)C(C)(C)C1` (stereo not drawn) [Compound 1767, N—[[6-(cyclohexylmethoxy)-2-pyridyl]sulfonyl]-2-(2,2,4-trimethylpyrrolidin-1-yl)pyridine-3-carboxamide], the EC30 result is given as “+++ (“+++” means <3 uM)”.

Consider `CC1CN(c2nc(C(C)(C)C)c(C3=COCCC3)cc2C(=O)NS(=O)(=O)c2cccc(N)n2)C(C)(C)C1` (stereo not drawn) [Compound 1487, N-[(6-amino-2-pyridyl)sulfonyl]-6-tert-butyl-5-(3,4-dihydro-2H-pyran-5-yl)-2-(2,2,4-trimethylpyrrolidin-1-yl)pyridine-3-carboxamide], for which the EC30 entry is given as “+++ (“+++” means <3 uM)”.

Consider `Cc1cc(OC(C)C)cc(-c2ccc(C(=O)NS(=O)(=O)c3cccc(N)n3)c(N3C[C@@H](C)CC3(C)C)n2)c1` [Compound 1671, N-[(6-amino-2-pyridyl)sulfonyl]-6-(3-isopropoxy-5-methyl-phenyl)-2-[(4S)-2,2,4-trimethylpyrrolidin-1-yl]pyridine-3-carboxamide], for which the EC30 result is recorded as “+++ (“+++” means <3 uM)”.

Regarding `C[C@@H]1CN(c2nc(-c3cc(F)cc(OCC(C)(C)O)c3)ccc2C(=O)NS(=O)(=O)c2cccc(N)n2)C(C)(C)C1` [Compound 1424, N-[(6-amino-2-pyridyl)sulfonyl]-6-[3-fluoro-5-(2-hydroxy-2-methyl-propoxy)phenyl]-2-[(4S)-2,2,4-trimethylpyrrolidin-1-yl]pyridine-3-carboxamide], the EC30 entry is “+++ (“+++” means <3 uM)”.

In the case of `COc1ccc(F)c(-c2ccc(C(=O)NS(=O)(=O)c3cccc(N)n3)c(Oc3c(C)cc(C)cc3C)n2)c1` [Compound 1178, N-[(6-amino-2-pyridyl)sulfonyl]-6-(2-fluoro-5-methoxy-phenyl)-2-(2,4,6-trimethylphenoxy)pyridine-3-carboxamide], the EC30 entry is “+++ (“+++” means <3 uM)”.

Turning to `C[C@@H]1CN(c2nc(CCC3CC3)ccc2C(=O)NS(=O)(=O)c2cccc(N)n2)C(C)(C)C1` [Compound 1677, N-[(6-amino-2-pyridyl)sulfonyl]-6-(2-cyclopropylethyl)-2-[(4S)-2,2,4-trimethylpyrrolidin-1-yl]pyridine-3-carboxamide], the EC30 result was “+++ (“+++” means <3 uM)”.

On to `CCc1ccc(-c2ccc(C(=O)NS(=O)(=O)c3ccc[nH]c3=O)c(Oc3c(C)cc(C)cc3C)n2)cc1` [Compound 831, 6-(4-ethylphenyl)-N-[(2-oxo-1H-pyridin-3-yl)sulfonyl]-2-(2,4,6-trimethylphenoxy)pyridine-3-carboxamide], for which the EC30 result is on record as “+++ (“+++” means <3 uM)”.
